The text below walks through data of patent US20200361871A1 (Enterprise Therapeutics Ltd., priority 2018, published 2020).

The assay deals with human TMEM16A (TMEM16Aabc variant) (Homo sapiens, UniProt Q5XXA6, DEL476-501, form not given). Nature of the assay: Automated whole-cell patch clamp (Qpatch) TMEM16A potentiator assay in FRT cells stably expressing human TMEM16A. The format is cell-based. The following applies: for % Potentiation @ 3.33 μM Avg: 3.33 μM solution of test compound, percentage increase of baseline TMEM16A current; for EC50: calculated EC50, Qpatch TMEM16A current at +70 mV. The essentials:
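Potentiation was read as the rise in peak +70 mV current over baseline (%), from cumulative 5-min additions of compound. Recordings used whole-cell automated patch of FRT cells stably carrying human TMEM16Aabc, with pipette Ca2+ buffered to give ~20% maximal current. EC50 and efficacy came from concentration-response fits.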

human TMEM16A (TMEM16Aabc variant), sequence (Q5XXA6 with tags, fused parts or gaps DEL476-501): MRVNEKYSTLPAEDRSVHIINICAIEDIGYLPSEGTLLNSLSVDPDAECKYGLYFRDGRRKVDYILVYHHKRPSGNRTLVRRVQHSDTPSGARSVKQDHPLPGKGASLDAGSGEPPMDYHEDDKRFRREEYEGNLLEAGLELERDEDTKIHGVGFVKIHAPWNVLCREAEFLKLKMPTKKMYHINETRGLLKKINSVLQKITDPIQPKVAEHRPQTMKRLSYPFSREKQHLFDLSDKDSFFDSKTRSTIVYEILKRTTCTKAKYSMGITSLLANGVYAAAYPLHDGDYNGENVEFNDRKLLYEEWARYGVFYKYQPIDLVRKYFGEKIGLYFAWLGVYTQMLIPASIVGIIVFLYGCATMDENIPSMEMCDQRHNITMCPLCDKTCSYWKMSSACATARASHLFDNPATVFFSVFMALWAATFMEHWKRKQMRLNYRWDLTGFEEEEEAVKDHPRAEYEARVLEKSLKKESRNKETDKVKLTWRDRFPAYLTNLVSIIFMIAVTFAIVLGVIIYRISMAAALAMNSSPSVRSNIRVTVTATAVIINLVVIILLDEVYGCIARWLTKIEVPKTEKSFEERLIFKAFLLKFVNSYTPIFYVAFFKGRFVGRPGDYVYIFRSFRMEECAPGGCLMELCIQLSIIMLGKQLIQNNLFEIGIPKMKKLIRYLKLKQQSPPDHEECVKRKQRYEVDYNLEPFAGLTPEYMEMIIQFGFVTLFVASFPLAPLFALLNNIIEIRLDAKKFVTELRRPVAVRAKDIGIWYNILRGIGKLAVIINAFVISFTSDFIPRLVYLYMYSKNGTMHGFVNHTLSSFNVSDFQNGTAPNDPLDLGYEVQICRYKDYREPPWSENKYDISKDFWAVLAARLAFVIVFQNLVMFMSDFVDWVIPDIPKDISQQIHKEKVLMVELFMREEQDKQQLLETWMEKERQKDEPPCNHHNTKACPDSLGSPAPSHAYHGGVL

As for `Cc1[nH]c2c(F)cccc2c1CC(=O)Nc1cccc(C(=O)NC(C)(C)C)c1` [Example 4.4, N-tert-Butyl-3-[[2-(7-fluoro-2-methyl-1H-indol-3-yl)acetyl]amino]benzamide], the “% Potentiation @ 3.33 μM Avg” value came out at 61% and the 50% effective concentration (EC50) is 4190 nM.
Take `CC(C)(C)NC(=O)c1cccc(NC(=O)Cc2c[nH]c3ccccc23)c1` [Example 4.5, N-tert-Butyl-3-[[2-(1H-indol-3-yl)acetyl]amino]benzamide]: the “% Potentiation @ 3.33 μM Avg” value is listed as 138% and the EC50 is 700 nM.
As for `CC(C)(C)NC(=O)c1cccc(NC(=O)Cc2ccccc2)c1` [Example 4.6, N-tert-Butyl-3-[(2-phenylacetyl)amino]benzamide], the “% Potentiation @ 3.33 μM Avg” value was determined as 53% and the EC50 is 3860 nM.
For `COc1cccc(F)c1CC(=O)Nc1cccc(C(=O)NC(C)(C)C)c1` [Example 4.7, N-tert-Butyl-3-[[2-(2-fluoro-6-methoxy-phenyl)acetyl]amino]benzamide], the “% Potentiation @ 3.33 μM Avg” value was found to be 68%.
For `COc1ccc(F)c(F)c1CC(=O)Nc1cccc(C(=O)NC(C)(C)C)c1` [Example 4.8, N-tert-Butyl-3-[[2-(2,3-difluoro-6-methoxy-phenyl)acetyl]amino]benzamide], the “% Potentiation @ 3.33 μM Avg” value was found to be 55% and the EC50 is 2070 nM.
Consider `COc1cc(C(F)(F)F)ccc1CC(=O)Nc1cccc(C(=O)NC(C)(C)C)c1` [Example 4.9, N-tert-Butyl-3-[[2-[2-methoxy-4-(trifluoromethyl)phenyl]acetyl]amino]benzamide], for which the “% Potentiation @ 3.33 μM Avg” value was 60% and the EC50 is 4660 nM.
`CC(C)(C)NC(=O)c1cc(NC(=O)Cc2cccs2)ccn1` [Example 5, N-tert-Butyl-4-[[2-[2-thienyl]acetyl]amino]pyridine-2-carboxamide]: the “% Potentiation @ 3.33 μM Avg” value amounted to 78% and the EC50 was 800 nM.
For the compound `CC(C)(C)NC(=O)c1cc(NC(=O)CC2C3CC4CC(C3)CC2C4)ccn1` (centres unmarked) [Example 5.1, 4-[[2-(2-Adamantyl)acetyl]amino]-N-tert-butyl-pyridine-2-carboxamide], the “% Potentiation @ 3.33 μM Avg” value was 140% and the half-maximal effective concentration (EC50) was 870 nM.
With `COc1cc(F)ccc1CC(=O)Nc1ccnc(C(=O)NC(C)(C)C)c1` [Example 5.2, N-tert-Butyl-4-[[2-(4-fluoro-2-methoxy-phenyl)acetyl]amino]pyridine-2-carboxamide], the “% Potentiation @ 3.33 μM Avg” value came out at 63%.
For the compound `CC(C)(C)NC(=O)c1cc(NC(=O)Cc2cc(Cl)ccc2F)ccn1` [Example 5.3, N-tert-Butyl-4-[[2-(5-chloro-2-fluoro-phenyl)acetyl]amino]pyridine-2-carboxamide], the “% Potentiation @ 3.33 μM Avg” value amounted to 152% and the half-maximal effective concentration (EC50) is 880 nM.
For the compound `CC(C)(C)NC(=O)c1cc(NC(=O)Cc2ccco2)ccn1` [Example 5.4, N-tert-Butyl-4-[[2-(2-furyl)acetyl]amino] pyridine-2-carboxamide], the “% Potentiation @ 3.33 μM Avg” value is listed as 57%.
In the case of `CC(C)(C)NC(=O)c1cc(NC(=O)Cc2cccc(Cl)c2)ccn1` [Example 5.5, N-tert-Butyl-4-[[2-(3-chlorophenyl)acetyl]amino]pyridine-2-carboxamide], the “% Potentiation @ 3.33 μM Avg” value stood at 132% and the EC50 was 720 nM.
Regarding `CC(C)(C)NC(=O)c1cc(NC(=O)Cc2c[nH]c3ccccc23)ccn1` [Example 5.6, N-tert-Butyl-4-[[2-(1H-indol-3-yl)acetyl]amino]pyridine-2-carboxamide], the “% Potentiation @ 3.33 μM Avg” value came out at 101% and the EC50 was 150 nM.
For `Cc1ccccc1CC(=O)Nc1ccnc(C(=O)NC(C)(C)C)c1` [Example 5.7, N-tert-Butyl-4-[[2-(o-tolyl)acetyl]amino]pyridine-2-carboxamide], the “% Potentiation @ 3.33 μM Avg” value amounted to 131% and the EC50 is 1230 nM.
For `CC(C)(C)NC(=O)c1cc(NC(=O)Cc2ccc(Cl)c(Cl)c2)ccn1` [Example 5.8, N-tert-Butyl-4-[[2-(3,4-dichlorophenyl)acetyl]amino]pyridine-2-carboxamide], the “% Potentiation @ 3.33 μM Avg” value was found to be 116% and the half-maximal effective concentration (EC50) is 460 nM.
For `CC(C)(C)NC(=O)c1cc(NC(=O)Cc2cccc(F)c2)ccn1` [Example 5.9, N-tert-Butyl-4-[[2-(3-fluorophenyl)acetyl]amino]pyridine-2-carboxamide], in that order: 126% and 1130 nM.
Regarding `COc1ccc(Cl)cc1CC(=O)Nc1ccnc(C(=O)NC(C)(C)C)c1` [Example 5.10, N-tert-Butyl-4-[[2-(5-chloro-2-methoxy-phenyl)acetyl]amino]pyridine-2-carboxamide], the “% Potentiation @ 3.33 μM Avg” value worked out at 78% and the EC50 was 3770 nM.
In the case of `Cc1ccc(CC(=O)Nc2ccnc(C(=O)NC(C)(C)C)c2)cc1` [Example 5.11, N-tert-Butyl-4-[[2-(p-tolyl)acetyl]amino]pyridine-2-carboxamide], the “% Potentiation @ 3.33 μM Avg” value came out at 89% and the EC50 is 170 nM.
As for `CC(C)(C)NC(=O)c1cc(NC(=O)Cc2ccccc2F)ccn1` [Example 5.12, N-tert-Butyl-4-[[2-(2-fluorophenyl)acetyl]amino]pyridine-2-carboxamide], the “% Potentiation @ 3.33 μM Avg” value came to 100% and the EC50 was 760 nM.
Consider `CC(C)(C)NC(=O)c1cc(NC(=O)Cc2ccc(F)cc2)ccn1` [Example 5.13, N-tert-Butyl-4-[[2-(4-fluorophenyl)acetyl]amino]pyridine-2-carboxamide], for which the “% Potentiation @ 3.33 μM Avg” value is on record as 94% and the EC50 was 1140 nM.
As for `Cc1cccc(CC(=O)Nc2ccnc(C(=O)NC(C)(C)C)c2)c1` [Example 5.14, N-tert-Butyl-4-[[2-(m-tolyl)acetyl]amino]pyridine-2-carboxamide], the “% Potentiation @ 3.33 μM Avg” value is 128% and the EC50 was 760 nM.
`CC(C)(C)NC(=O)c1cc(NC(=O)Cc2ccc3ncoc3c2)ccn1` [Example 5.15, 4-[[2-(1,3-Benzoxazol-6-yl)acetyl]amino]-N-tert-butyl-pyridine-2-carboxamide]: the “% Potentiation @ 3.33 μM Avg” value is listed as 87%.
Same read-out and setting: to `CC(C)(C)NC(=O)c1cc(NC(=O)Cc2cccnc2Cl)ccn1` [Example 5.16, N-tert-Butyl-4-[[2-(2-chloro-3-pyridyl)acetyl]amino]pyridine-2-carboxamide] belongs 110%.
On to `CC(C)(C)NC(=O)c1cc(NC(=O)Cc2c(Cl)cccc2Cl)ccn1` [Example 5.17, N-tert-Butyl-4-[[2-(2,6-dichlorophenyl)acetyl]amino]pyridine-2-carboxamide], for which the “% Potentiation @ 3.33 μM Avg” value stood at 94% and the EC50 was 650 nM.
For `CC(C)(C)NC(=O)c1cc(NC(=O)Cc2ccc(Cl)c(F)c2)ccn1` [Example 5.18, N-tert-Butyl-4-[[2-(4-chloro-3-fluoro-phenyl)acetyl]amino]pyridine-2-carboxamide], in that order: 79% and 460 nM.
For the compound `CC(C)(C)NC(=O)c1cc(NC(=O)Cc2cc(Cl)cc(Cl)c2)ccn1` [Example 5.19, N-tert-Butyl-4-[[2-(3,5-dichlorophenyl)acetyl]amino]pyridine-2-carboxamide], the “% Potentiation @ 3.33 μM Avg” value came to 75% and the concentration giving a half-maximal response (EC50) was 1850 nM.

The EC50 is the concentration needed to bring the measured effect to its halfway point.
